Where two headings read alike, the source gives them in different places.

Experimental findings from publication PMC3609710 (Journal of chromatography. A, 2012) are described below.

The format of this data set is in vivo, mouse (C57Bl/6). The note with it: mouse serum, single IP injection of T1AM 25 mg/kg.

As to `O=C(O)Cc1ccc(Oc2ccc(O)cc2)c(I)c1` [TA1, 3-iodothyroacetic acid], the serum concentration runs as follows: (10 minutes post-injection) 17.7 ± 4.6 µM; (20 minutes post-injection) 23.5 ± 13.2 µM.

For the setting “at 6 hours post-injection”, `O=C(O)Cc1ccc(Oc2ccc(O)cc2)cc1` [TA0, thyroacetic acid] had a greatest serum concentration of 0.77 ± 0.16 µM. For `NCCc1ccc(Oc2ccc(O)cc2)c(I)c1` [T1AM, 3-Iodothyronamine], the serum concentration reads like this: (10 minutes post-injection) 16.6 ± 8.5 µM; (20 minutes post-injection) 5.6 ± 3.1 µM.
